In US8673922B2, “Azaindazole compounds” (Bristol-Myers Squibb Company, priority 2010, dated 2014):

These compounds were tested against T1, Human CYP17 (Homo sapiens, UniProt P05093) (assay: CYP17 Total SPA Assay). Conditions: microsomes from HEK2 cells stably transfected with CYP17; 3H-Pregnenolone 1 uM, NADPH 2 mM; 45 minutes at room temperature.
T1 construct: expressed in transfected cells; host or cells: HEK2 (sic); microsomes prepared as a high-speed pellet
T1 sequence (P05093 1-508): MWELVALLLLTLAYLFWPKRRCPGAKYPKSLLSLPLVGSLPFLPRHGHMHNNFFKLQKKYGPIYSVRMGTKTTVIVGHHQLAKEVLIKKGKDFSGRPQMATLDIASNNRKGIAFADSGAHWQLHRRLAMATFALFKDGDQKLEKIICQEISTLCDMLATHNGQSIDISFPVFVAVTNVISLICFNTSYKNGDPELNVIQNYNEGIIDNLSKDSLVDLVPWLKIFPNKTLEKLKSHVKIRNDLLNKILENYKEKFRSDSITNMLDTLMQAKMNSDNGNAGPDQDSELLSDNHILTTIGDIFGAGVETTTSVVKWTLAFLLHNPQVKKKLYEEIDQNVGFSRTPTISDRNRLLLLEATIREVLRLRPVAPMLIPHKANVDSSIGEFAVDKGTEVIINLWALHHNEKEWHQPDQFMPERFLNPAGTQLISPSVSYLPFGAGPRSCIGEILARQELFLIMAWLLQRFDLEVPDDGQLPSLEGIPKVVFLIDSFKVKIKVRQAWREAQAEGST
Assay type: biochemical
Procedure: The assays were performed in U-bottom 384-well optiplates. The final assay volume was 15 μl prepared from 7.5 μl additions of microsomes (prepared as a high-speed pellet from homogenized HEK2 cells stably transfected with CYP17), substrates (3 H-Pregnenolone and NADPH) and test compounds in assay buffer (50 mM Potassium phosphate pH 7.2, 10% glycerol). The reaction was initiated by the combination of the microsomes and substrates in wells containing compound. The reaction was incubated at room temperature for 45 minutes and terminated by adding 7.5 μl of 0.2N HCl to each well. Following an incubation period of 10 minutes, anti-DHEA-coated SPA beads were added to the terminated reaction. The plate was sealed and incubated overnight with shaking at 4° C. The beads were allowed to settle in the plate for 1 hour and the plate read on a Topcount (Perkin-Elmer) plate reader.
Inhibition data were calculated by comparison to no enzyme control reactions for 100% inhibition and vehicle-only reactions for 0% inhibition. The final concentration of reagents in the assays are NADPH, 2 mM; 3H-Pregnenolone, 1 uM; microsomes, 1.25 ug/ml; Anti-DHEA-SPA beads (0.125 mg/well) in 0.5% Triton X-100 and DMSO, 0.05%. Dose response curves were generated to determine the concentration required inhibiting 50% of enzyme activity (IC50). Compounds were dissolved at 10 mM in dimethylsulfoxide (DMSO) and evaluated at eleven concentrations, each in duplicate. IC50 values were derived by non-linear regression analysis.
Table 5 below lists the IC50 values for the following examples of this invention measured in the Total CYP17 SPA Assay hereinabove.

| Compound | IC50 [nM] |
| --- | --- |
| Nc1ncncc1-c1ccnc2c1cnn2-c1ccc(F)cc1 [Example 8, 5-(1-(4-fluorophenyl)-1H-pyrazolo[3,4-b]pyridin-4-yl)pyrimidin-4-amine] | 23 |
| OC1(c2ccncc2-c2ccnc3c2cnn3-c2ccc(F)cc2)COC1 [Example 9, 3-(3-(1-(4-fluorophenyl)-1H-pyrazolo[3,4-b]pyridin-4-yl)pyridin-4-yl)oxetan-3-ol] | 5.9 |
| Cc1ccncc1-c1ccnc2c1cnn2C1CCOCC1 [Example 33, 4-(4-methylpyridin-3-yl)-1-(tetrahydro-2H-pyran-4-yl)-1H-pyrazolo[3,4-b]pyridine] | 393 |
| Cc1ccncc1-c1ccnc2c1cnn2-c1ncccc1Br [Example 46, 1-(3-bromopyridin-2-yl)-4-(4-methylpyridin-3-yl)-1H-pyrazolo[3,4-b]pyridine] | 10 |
| Cc1ccncc1-c1ccnc2c1cnn2Cc1c(F)cccc1Cl [Example 55, 1-(2-chloro-6-fluorobenzyl)-4-(4-methylpyridin-3-yl)-1H-pyrazolo[3,4-b]pyridine] | 807 |
| Cc1ncncc1-c1ccnc2c1cnn2-c1ccc(F)cc1F [Example 64, 1-(2,4-difluorophenyl)-4-(4-methylpyrimidin-5-yl)-1H-pyrazolo[3,4-b]pyridine] | 15 |
| Cc1ccncc1-c1ccnc2c1cnn2-c1cccc(S(N)(=O)=O)c1 [Example 80, 3-(4-(4-methylpyridin-3-yl)-1H-pyrazolo[3,4-b]pyridin-1-yl)benzenesulfonamide] | 18 |
| Fc1ccc(-n2ncc3c(-c4cncnc4C(F)(F)F)ccnc32)cc1F [Example 100, 1-(3,4-difluorophenyl)-4-(4-(trifluoromethyl)-5-pyrimidinyl)-1H-pyrazolo[3,4-b]pyridine] | 320 |

Next, values leading:

| IC50 [nM] | Compound |
| --- | --- |
| 186 | Cc1ncncc1-c1ccnc2c1cnn2-c1ccc(F)cc1 [Example 2, 1-(4-fluorophenyl)-4-(4-methylpyrimidin-5-yl)-1H-pyrazolo[3,4-b]pyridine] |
| 100 | Cc1ccncc1-c1ccnc2c1cnn2-c1ccc(C(F)(F)F)cn1 [Example 39, 4-(4-methylpyridin-3-yl)-1-(5-(trifluoromethyl)pyridin-2-yl)-1H-pyrazolo[3,4-b]pyridine] |
| 5.8 | Nc1ncncc1-c1ccnc2c1cnn2-c1ccc(F)cc1F [Example 67, 5-(1-(2,4-difluorophenyl)-1H-pyrazolo[3,4-b]pyridin-4-yl)pyrimidin-4-amine] |
| 105 | Nc1ncncc1-c1ccnc2c1cnn2-c1ccc(F)c(F)c1F [Example 70, 5-(1-(2,3,4-trifluorophenyl)-1H-pyrazolo[3,4-b]pyridin-4-yl)pyrimidin-4-amine] |
| 525 | Nc1ncncc1-c1ccnc2c1cnn2-c1ccccn1 [Example 72, 5-(1-(pyridin-2-yl)-1H-pyrazolo[3,4-b]pyridin-4-yl)pyrimidin-4-amine] |
| 89 | Cc1ccncc1-c1ccnc2c1cnn2CC(F)(F)F [Example 84, 4-(4-methylpyridin-3-yl)-1-(2,2,2-trifluoroethyl)-1H-pyrazolo[3,4-b]pyridine] |
| 622 | Cc1csc(-n2ncc3c(-c4cnccc4C)ccnc32)n1 [Example 88, 4-methyl-2-(4-(4-methylpyridin-3-yl)-1H-pyrazolo[3,4-b]pyridin-1-yl)thiazole] |
| 159 | Fc1ccc(-n2ncc3c(-c4cncnc4C(F)(F)F)ccnc32)c(F)c1 [Example 93, 1-(2,4-difluorophenyl)-4-(4-(trifluoromethyl)pyrimidin-5-yl)-1H-pyrazolo[3,4-b]pyridine] |
| 704 | Nc1ncncc1-c1ccnc2c1cnn2-c1ccc(F)c(Cl)c1 [Example 96, 5-(1-(3-chloro-4-fluorophenyl)-1H-pyrazolo[3,4-b]pyridin-4-yl)-4-pyrimidinamine] |
| 123 | Fc1ccc(-n2ncc3c(-c4cncnc4OCC(F)(F)F)ccnc32)cc1 [Example 106, 1-(4-fluorophenyl)-4-(4-(2,2,2-trifluoroethoxy)pyrimidin-5-yl)-1H-pyrazolo[3,4-b]pyridine] |

Each compound was assayed on cynomolgus monkeys (assay: 1-Day Cyno PK/PD Study). Conditions: plasma, single oral dose 1 mg/Kg in 80% PEG-400/water, monitored over 24 hours.
Assay type: in vivo, cynomolgus monkey
Procedure: Example 67 was formulated in 80% PEG-400/water at a volume of 1 mL/kg of monkey at a dose of 1 mg/kg. The formulation was then dosed orally at time=0 hours and blood samples were taken over a 24 hour period to monitor for drug exposure and testosterone levels. (♦) Example 67 (nM); (▪) testosterone (ng/dL).
• Animals: All procedures involving animals and their care were conducted in conformity with the guidelines that are in compliance with the Bristol-Myers Squibb Institutional Animal Care and Use Committee. Fully mature male cynomolgus monkeys (>4 yrs of age; 5-6 kg) were from an in-house colony. All the monkeys used had chronically implanted femoral vein access ports. For oral studies, all animals were fasted overnight prior to dosing and were fed 4 hr after dosing. […] The plasma fraction was immediately separated by centrifugation (14,000 rpm, 10 min, 4° C.), frozen on dry ice, and stored at −20° C. until the samples were analyzed. • Analysis of Tested Compound: Plasma samples were thawed and treated with two volumes of acetonitrile containing internal standard. After centrifugation to remove precipitated proteins, an aliquot of supernatant was analyzed by LC/MS/MS. […]

| Compound | testosterone levels [ng/dL] |
| --- | --- |
| Nc1ncncc1-c1ccnc2c1cnn2-c1ccc(F)cc1F [Example 67, 5-(1-(2,4-difluorophenyl)-1H-pyrazolo[3,4-b]pyridin-4-yl)pyrimidin-4-amine] | ~30 |
